Assay results as given in publication PMC3715147 (Journal of natural products, 2013).

Experiments:
HIV-1 NL4-3 = test: Anti-HIV assay: HIV-1 NL4-3 replication in MT4 cells; format: cell-based; details: Human immunodeficiency virus 1, NL43, Lymphocyte, read-out: anti-HIV EC90
HIV-1 R5 viruses = details: cited from earlier work
X4 or dual tropic HIV-1 = details: peripheral blood mononuclear cells (PBMCs); cited from earlier work

Compound	EC90 (HIV-1 NL4-3)	inhibition of HIV-1 R5 viruses (in words) (HIV-1 R5 viruses)	activity against X4 or dual tropic HIV-1 replication (in words) (X4 or dual tropic HIV-1)
CCCCC/C=C\CCC(=O)O[C@@]12[C@H](OC(=O)c3ccccc3)[C@@H](C)[C@@]3(O)[C@@H](C=C(CO)C[C@]4(O)C(=O)C(C)=C[C@@H]34)[C@@H]1C2(C)C [Compound 3, stelleracin A]	< 1 nM		
CCCCCCCC(=O)O[C@]12[C@H]([C@@H]3C=C(CO)C[C@]4(O)C(=O)C(C)=C[C@H]4[C@@]3(O)C[C@H]1OC(=O)c1ccccc1)C2(C)C [Compound 2, 12-O-benzoylphorbol 13-octanoate]	< 1 nM		
C=C(C)[C@@]12C[C@@H](COC(=O)c3ccccc3)[C@@]34OC5(O[C@@H]1[C@@H]3[C@@H]1O[C@]1(CO)[C@@H](O)[C@@]1(O)[C@H]4[C@H]([C@H](C)[C@@H]1OC(=O)c1ccccc1)[C@H](C)CCCCCC[C@H]5O)O2 [gnidimacrin]		potent inhibitor	essentially inactive
CCCCCCCCCC(=O)O[C@@]12[C@H](OC(=O)c3ccccc3)[C@@H](C)[C@@]3(O)[C@@H](C=C(CO)C[C@]4(O)C(=O)C(C)=C[C@@H]34)[C@@H]1C2(C)C [Compound 1, stellerarin]	< 1 nM		
